Test results: publication PMC9315535 (Microorganisms, 2022)

Assays:
[1] = test system: ZIKV NS2B/NS3 protease; settings: Targeted virus ZIKV; cited from earlier work
[2] = in vitro; settings: Cercopithecus aethiops (African green monkey)
[3] = biological target: T1, YFV NS2B/NS3pro (Yellow fever virus, UniProt Q1X881); test: biochemical; format: binding
[4] = biological target: T1, YFV NS2B/NS3pro; test: biochemical
[5] = test system: serine protease of the human cytomegalovirus (HCMV); parameters: method as in PMID 8639546; settings: cited from earlier work
[6] = test system: Zika virus (strain ZIKVBR); test: Virucidal / time-of-drug addition plaque-forming assay, ZIKV; format: cell-based; settings: 50 µM, Vero cells
[7] = test system: Chikungunya virus (strain ECSA); test: Virucidal / time-of-drug addition plaque-forming assay, CHIKV; format: cell-based; settings: 50 µM, virus and compound incubated 1 h at RT, Vero cells
[8] = biological target: T2, CHIKV nsP2pro (Chikungunya virus, UniProt Q8JUX6); test: Thermal unfolding followed by Trp fluorescence, CHIKV protease; format: binding
[9] = test system: yellow fever virus (vaccinal strain); format: cell-based
[10] = test system: Vero cells
[11] = biological target: T1, YFV NS2B/NS3pro; format: binding
[12] = biological target: T3, ZIKV NS2B/NS3pro (Zika virus, UniProt A0A140DLX4); test: Thermal unfolding followed by Trp fluorescence, ZIKV protease; format: binding; settings: protease alone 43 °C
[13] = biological target: T3, ZIKV NS2B/NS3pro; test: biochemical; format: binding
[14] = ref https://www.drugbank.ca/drugs/DB00140; cited from earlier work
[15] = biological target: T2, CHIKV nsP2pro; test: biochemical
[16] = biological target: T2, CHIKV nsP2pro; test: biochemical; format: binding
[17] = biological target: T3, ZIKV NS2B/NS3pro; test: biochemical
[18] = test system: CHIKV nsP2 protease; parameters: method as in PMID 33661906; settings: Targeted virus CHIKV; cited from earlier work
[19] = test system: YFV NS2B/NS3 protease; settings: cited from earlier work
[20] = read-out: Inhibition of protease activity, primary test

COc1ccc2c(O[C@@H]3C[C@H]4C(=O)N[C@]5(C(=O)NS(=O)(=O)C6CC6)C[C@H]5/C=C\CCCCN(C)C(=O)[C@@H]4C3)cc(-c3nc(C(C)C)cs3)nc2c1C [Simeprevir]
IC50 [1]: 2.6 µM

Cc1cc2nc3c(=O)[nH]c(=O)nc-3n(C[C@H](O)[C@H](O)[C@H](O)CO)c2cc1C [riboflavin]
CC50 [2]: 72.3 µM | Excitation Shift [3]: blue edge excitation shift | Kd [3]: 18.2 ± 3.9 µM | Final concentration to inhibit 100% of protease [4]: 200 µM | IC50 [4]: 45.7 ± 2.9 µM | Inhibition Mode [4]: competitive | inhibition at 20 µM [4, 20]: 30% | IC50 [5]: 0.3 µM | Inhibition Mode [5]: competitive | Prevention of virus entry (virucidal assay) [6]: not observed | Decrease of CHIKV replication, virucidal assay [7]: 44.35% | Tm of protease-riboflavin complex ([8]; protease alone 47 °C): 52 °C | ΔTm ([8]; protein 10 µM, riboflavin 75 µM): 5 °C | Prevention of virus entry (virucidal assay) [9]: not observed | Effect on cell viability [10]: does not affect cell viability | Tm of protease-riboflavin complex [11]: 51 °C | ΔTm [11]: 4 °C | Tm of protease-riboflavin complex [12]: 51 °C | Excitation Shift [13]: blue edge excitation shift | Kd ([13]; KD ± STD): 25.1 µM | LogP [14]: −1.5 | IC50 [15]: 0.093 ± 0.0057 µM | Inhibition Mode [15]: competitive | LE (ligand efficiency) [15]: 0.36 | Required concentration to inhibit protease (100%) [15]: 5 µM | inhibition at 1 µM [15, 20]: ~85% | inhibition at 20 µM [15, 20]: 100% | Excitation Shift [16]: blue edge excitation shift | Kd [16]: 2.8 ± 0.7 µM | Inhibition Mode [17]: competitive | IC100 ([17]; 1 h, read-out: Final concentration to inhibit 100% of protease): 220 µM | IC50 ([17]; IC50 ± STD): 79.4 ± 5 µM | IC50 ([17]; pIC50): 79.4 µM | inhibition at 20 µM [17, 20]: 10%

COc1ccc([C@@H]2CC(=O)c3c(O)cc(O)cc3O2)cc1O [Hesperetin]
IC50 [18]: 2.5 µM | IC50 [1]: 12.6 µM | IC50 [19]: 2 µM
